# According to patent publication US11053204B2, “Pyrimidinyloxy benzene derivatives as herbicides” (FMC Corporation, priority 2015, dated 2021):
# Tests used:
# Assay type in all cases: in vivo
# [1] = tested on: Italian ryegrass (Lolium multiflorum); experiment: Test A postemergence, visual injury rating
# How it was run: (§1)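 Pre- and postemergence greenhouse screen. Soil: loam + sand. Spray carrier: solvent mixture, non-phytotoxic, with surfactant. Post timing at 1–2 leaves, height 2–10 cm. Readout: visual injury on a 0–100 scale roughly 10 days after application, untreated plants as reference.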
# [2] = tested on: barnyardgrass (Echinochloa crus-galli); experiment: Test A postemergence, visual injury rating; details: 0 to 100 scale, 0 is no effect, 100 is complete control, approximately 10 days
# How it was run: as §1
# [3] = tested on: blackgrass (Alopecurus myosuroides); experiment: Test A postemergence, visual injury rating
# How it was run: as §1
# [4] = tested on: corn (Zea mays); experiment: Test A postemergence, visual injury rating
# How it was run: as §1
# [5] = tested on: galium (catchweed bedstraw, Galium aparine); experiment: Test A postemergence, visual injury rating
# How it was run: as §1
# [6] = tested on: giant foxtail (Setaria faberii); experiment: Test A postemergence, visual injury rating
# How it was run: as §1
# [7] = tested on: kochia (Kochia scoparia); experiment: Test A postemergence, visual injury rating
# How it was run: as §1
# [8] = tested on: pigweed (Amaranthus retroflexus); experiment: Test A postemergence, visual injury rating
# How it was run: as §1
# [9] = tested on: ragweed (common ragweed, Ambrosia elatior); experiment: Test A postemergence, visual injury rating
# How it was run: as §1
# [10] = tested on: wheat (Triticum aestivum); experiment: Test A postemergence, visual injury rating
# How it was run: as §1
# [11] = tested on: blackgrass (Alopecurus myosuroides); experiment: Test C postemergence, plant response rating; details: for Blackgrass plant response rating: scale 0 to 100 (0 no effect, 100 complete control)
# How it was run: (§2)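 Both timings shared one formulation, a non-phytotoxic solvent mixture with surfactant, and a greenhouse period of 13 to 15 d. Preemergence used seeded loam/sand or silt loam soil, postemergence used 2 to 18 cm plants; visual ratings ran from 0 (no effect) to 100 (complete control).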
# [12] = tested on: chickweed (common chickweed, Stellaria media); experiment: Test C postemergence, plant response rating; details: for Chickweed plant response rating: scale 0 to 100 (0 no effect, 100 complete control)
# How it was run: as §2
# [13] = tested on: foxtail, giant (giant foxtail, Setaria faberii); experiment: Test C postemergence, plant response rating; details: for Foxtail, Giant plant response rating: scale 0 to 100 (0 no effect, 100 complete control)
# How it was run: as §2
# [14] = tested on: galium (catchweed bedstraw, Galium aparine); experiment: Test C postemergence, plant response rating; details: for Galium plant response rating: scale 0 to 100 (0 no effect, 100 complete control)
# How it was run: as §2
# [15] = tested on: oilseed rape (Brassica napus); experiment: Test C postemergence, plant response rating; details: for Oilseed Rape plant response rating: scale 0 to 100 (0 no effect, 100 complete control)
# How it was run: as §2
# [16] = tested on: ryegrass, Italian (Italian ryegrass, Lolium multiflorum); experiment: Test C postemergence, plant response rating; details: for Ryegrass, Italian plant response rating: scale 0 to 100 (0 no effect, 100 complete control)
# How it was run: as §2
# [17] = tested on: soybean (Glycine max); experiment: Test C postemergence, plant response rating; details: for Soybean plant response rating: scale 0 to 100 (0 no effect, 100 complete control)
# How it was run: as §2
# [18] = tested on: waterhemp (common waterhemp, Amaranthus rudis); experiment: Test C postemergence, plant response rating; details: for Waterhemp plant response rating: 125 g ai/ha, scale 0 to 100 (0 no effect, 100 complete control)
# How it was run: as §2
# [19] = tested on: wheat (winter wheat, Triticum aestivum); experiment: Test C postemergence, plant response rating; details: for Wheat plant response rating: 125 g ai/ha, scale 0 to 100 (0 no effect, 100 complete control)
# How it was run: as §2
# [20] = 31 g ai/ha, 0 to 100 scale (0 no effect, 100 complete control)
# [21] = 125 g ai/ha, 0 to 100 scale, 0 is no effect, 100 is complete control, approximately 10 days
smiles,measurement,setting,value
O=C(CCCC(F)(F)F)c1c(Cl)cccc1Oc1ncc(Cl)cn1 [Compound 143],"Ryegrass, Italian plant response rating",[1]; [20],20
same,"Ryegrass, Italian plant response rating",[1]; [21],80
same,Barnyardgrass plant response rating,[2]; 31 g ai/ha,20
same,Barnyardgrass plant response rating,[2]; 125 g ai/ha,70
same,Blackgrass plant response rating,[3]; [20],30
same,Blackgrass plant response rating,[3]; [21],80
same,Corn plant response rating,[4]; [20],10
same,Corn plant response rating,[4]; [21],30
same,Galium plant response rating,[5]; [20],90
same,Galium plant response rating,[5]; [21],100
same,"Foxtail, Giant plant response rating",[6]; [20],30
same,"Foxtail, Giant plant response rating",[6]; [21],70
same,Kochia plant response rating,[7]; [20],90
same,Kochia plant response rating,[7]; [21],100
same,Pigweed plant response rating,[8]; [20],100
same,Pigweed plant response rating,[8]; [21],100
same,Ragweed plant response rating,[9]; [20],20
same,Ragweed plant response rating,[9]; [21],50
same,Wheat plant response rating,[10]; [20],10
same,Wheat plant response rating,[10]; [21],20
same,"Plant response rating, Blackgrass","[11]; 16 g ai/ha, scale 0 to 100",10
same,"Plant response rating, Blackgrass","[11]; 31 g ai/ha, scale 0 to 100",15
same,Blackgrass plant response rating,[11]; 62 g ai/ha,15
same,Blackgrass plant response rating,[11]; 125 g ai/ha,40
same,"Plant response rating, Chickweed","[12]; 16 g ai/ha, scale of 0 to 100",80
same,"Plant response rating, Chickweed","[12]; 31 g ai/ha, scale 0 to 100",80
same,Chickweed plant response rating,[12]; 62 g ai/ha,85
same,Chickweed plant response rating,[12]; 125 g ai/ha,100
same,"Plant response rating, Foxtail, Giant","[13]; 16 g ai/ha, scale of 0 to 100",20
same,"Plant response rating, Foxtail, Giant","[13]; 31 g ai/ha, scale 0 to 100",10
same,"Foxtail, Giant plant response rating",[13]; 62 g ai/ha,10
same,"Foxtail, Giant plant response rating",[13]; 125 g ai/ha,25
same,"Plant response rating, Galium","[14]; 16 g ai/ha, scale of 0 to 100",75
same,"Plant response rating, Galium","[14]; 31 g ai/ha, scale 0 to 100",85
same,Galium plant response rating,[14]; 62 g ai/ha,80
same,Galium plant response rating,[14]; 125 g ai/ha,95
same,"Plant response rating, Oilseed Rape","[15]; 16 g ai/ha, scale of 0 to 100",85
same,"Plant response rating, Oilseed Rape","[15]; 31 g ai/ha, scale 0 to 100",80
same,Oilseed Rape plant response rating,[15]; 62 g ai/ha,95
same,Oilseed Rape plant response rating,[15]; 125 g ai/ha,100
same,"Plant response rating, Ryegrass, Italian","[16]; 16 g ai/ha, scale of 0 to 100",5
same,"Plant response rating, Ryegrass, Italian","[16]; 31 g ai/ha, scale 0 to 100",10
same,"Ryegrass, Italian plant response rating",[16]; 62 g ai/ha,10
same,"Ryegrass, Italian plant response rating",[16]; 125 g ai/ha,20
same,"Plant response rating, Soybean","[17]; 16 g ai/ha, scale of 0 to 100",30
same,"Plant response rating, Soybean","[17]; 31 g ai/ha, scale 0 to 100",40
same,Soybean plant response rating,[17]; 62 g ai/ha,55
same,Soybean plant response rating,[17]; 125 g ai/ha,65
same,"Plant response rating, Waterhemp","[18]; 16 g ai/ha, scale of 0 to 100",75
same,"Plant response rating, Waterhemp","[18]; 31 g ai/ha, scale 0 to 100",80
same,Waterhemp plant response rating,[18],90
same,"Plant response rating, Wheat","[19]; 16 g ai/ha, scale of 0 to 100",5
same,"Plant response rating, Wheat","[19]; 31 g ai/ha, scale 0 to 100",10
same,Wheat plant response rating,[19],30
N#CC(CCCC(F)(F)F)c1ccccc1Oc1ncc(Cl)cn1 (stereo not shown) [Compound 144],"Ryegrass, Italian plant response rating",[1]; [20],30
same,"Ryegrass, Italian plant response rating",[1]; [21],80
same,Barnyardgrass plant response rating,[2]; 31 g ai/ha,40
same,Barnyardgrass plant response rating,[2]; 125 g ai/ha,90
same,Blackgrass plant response rating,[3]; [20],50
same,Blackgrass plant response rating,[3]; [21],90
same,Corn plant response rating,[4]; [20],20
same,Corn plant response rating,[4]; [21],80
same,Galium plant response rating,[5]; [20],40
same,Galium plant response rating,[5]; [21],100
same,"Foxtail, Giant plant response rating",[6]; [20],60
same,"Foxtail, Giant plant response rating",[6]; [21],90
same,Kochia plant response rating,[7]; [20],90
same,Kochia plant response rating,[7]; [21],100
same,Pigweed plant response rating,[8]; [20],90
same,Pigweed plant response rating,[8]; [21],100
same,Ragweed plant response rating,[9]; [20],10
same,Ragweed plant response rating,[9]; [21],10
same,Wheat plant response rating,[10]; [20],10
same,Wheat plant response rating,[10]; [21],60
same,"Plant response rating, Blackgrass","[11]; 16 g ai/ha, scale of 0 to 100",10
same,"Plant response rating, Blackgrass","[11]; 31 g ai/ha, scale 0 to 100",10
same,Blackgrass plant response rating,[11]; 62 g ai/ha,15
same,Blackgrass plant response rating,[11]; 125 g ai/ha,15
same,"Plant response rating, Chickweed","[12]; 16 g ai/ha, scale of 0 to 100",50
same,"Plant response rating, Chickweed","[12]; 31 g ai/ha, scale 0 to 100",55
same,Chickweed plant response rating,[12]; 62 g ai/ha,85
same,Chickweed plant response rating,[12]; 125 g ai/ha,85
same,"Plant response rating, Foxtail, Giant","[13]; 16 g ai/ha, scale of 0 to 100",5
same,"Plant response rating, Foxtail, Giant","[13]; 31 g ai/ha, scale 0 to 100",10
same,"Foxtail, Giant plant response rating",[13]; 62 g ai/ha,30
same,"Foxtail, Giant plant response rating",[13]; 125 g ai/ha,40
same,"Plant response rating, Galium","[14]; 16 g ai/ha, scale of 0 to 100",50
same,"Plant response rating, Galium","[14]; 31 g ai/ha, scale 0 to 100",70
same,Galium plant response rating,[14]; 62 g ai/ha,85
same,Galium plant response rating,[14]; 125 g ai/ha,90
same,"Plant response rating, Oilseed Rape","[15]; 16 g ai/ha, scale of 0 to 100",35
same,"Plant response rating, Oilseed Rape","[15]; 31 g ai/ha, scale 0 to 100",35
same,Oilseed Rape plant response rating,[15]; 62 g ai/ha,70
same,Oilseed Rape plant response rating,[15]; 125 g ai/ha,85
same,"Plant response rating, Ryegrass, Italian","[16]; 16 g ai/ha, scale of 0 to 100",5
same,"Plant response rating, Ryegrass, Italian","[16]; 31 g ai/ha, scale 0 to 100",10
same,"Ryegrass, Italian plant response rating",[16]; 62 g ai/ha,15
same,"Ryegrass, Italian plant response rating",[16]; 125 g ai/ha,20
same,"Plant response rating, Soybean","[17]; 16 g ai/ha, scale of 0 to 100",30
same,"Plant response rating, Soybean","[17]; 31 g ai/ha, scale 0 to 100",30
same,Soybean plant response rating,[17]; 62 g ai/ha,50
same,Soybean plant response rating,[17]; 125 g ai/ha,65
same,"Plant response rating, Waterhemp","[18]; 16 g ai/ha, scale of 0 to 100",35
same,"Plant response rating, Waterhemp","[18]; 31 g ai/ha, scale 0 to 100",60
same,Waterhemp plant response rating,[18],75
same,"Plant response rating, Waterhemp","[18]; rate not given, scale 0 to 100",75
same,"Plant response rating, Wheat","[19]; 16 g ai/ha, scale of 0 to 100",5
same,"Plant response rating, Wheat","[19]; 31 g ai/ha, scale 0 to 100",5
same,Wheat plant response rating,[19],15
